Laboratory results: patent US12559863B2, “Macrocyclic modulators of disease associated protein misfolding and aggregation” (RESQ BIOTECH, priority 2017, dated 2026)

How the values were obtained:
SOD1(A4V) [1] = biological target: T1, SOD1(A4V) (Homo sapiens, UniProt P00441, A5V); experiment: Thioflavin T staining of SOD1(A4V); assay type: biochemical; conditions: 90 d at 25° C.
T1 construct: polyHis; made in house; host or cells: E. coli Origami 2(DE3)
Description: SOD1 or mutants thereof were overexpressed from the appropriate pET-SOD1 or PASK-SOD1 vectors in E. coli Origami 2(DE3) cells in LB medium containing 50 μg/mL kanamycin (for pET-SOD1) or 100 μg/mL ampicillin (for pASK-SOD1), 200 μM CuCl2, and 200 μM ZnCl2 by the addition of 0.01 mM IPTG (for pET-SOD1) or 0.2 μg/mL anhydrotetracycline (aTc) (for pASK-SOD1), either at 37° C. for 2-3 h or at 18° C. for about 16 h. Origami 2(DE3) cells were utilized in order to provide an oxidizing cytoplasmic environment in order to promote correct formation of disulfide bonds, which are required for proper SOD1 folding and function. Under these conditions, bacterially produced SOD1 is produced in dimeric and enzymatically active form, while it simultaneously co-exists with misfolded, soluble and insoluble SOD1 oligomeric/aggregated species (FIG. 3C). Thus, the acquired protein is found in a state that resembles the conditions encountered in human cells under stressful or pathogenic conditions. […]
40 μM SOD1(A4V) solutions, aged for 90 d at 25° C., with or without the selected synthetic peptides, were diluted to 10 μM with PBS. […] The mixture was agitated adequately by pipetting and immediately thereafter, fluorescence was monitored with excitation at 440 nm (EM slit=2.5 nm, PMT Voltage 700 V, response 0.4 s) using a HITACHI F-2500 (Japan) spectrofluorometer.

[2] = system: HEK293 cells transiently expressing SOD1(A4V)-GFP; experiment: SOD1 aggregation and viability measurements in HEK293 cells; assay type: cell-based, human; conditions: 5 μM SOD1C5-4; compared to untreated cells
Description: Human embryonic kidney (HEK) 293 cells were transfected using a Nucleofector (Amaxa) following the manufacturer's protocol. 6 ug DNA (SOD1 or SOD1(A4V) cloned into the pEGFP-N3 plasmid vector) were used per 2×10^6 cells and 5 μM synthetic SOD1C5-4 was added, where appropriate, before plating. Transfected cells were sorted 18 h later on a FACSAria to isolate GFP-positive clones. […] Collected cells were plated onto a 24-well plate at a density of 50,000 cells/well. Microscopy analysis was performed under an inverted microscope on day 1 and day 5 in culture after sorting. Cell counts are the average number of viable GFP-fluorescing cells of two areas per triplicate of wells of 24-well plates (magnification 20×). Cell counts are presented as percentage of viability of SOD1-overxoressing cell. As aggregate-positive cells are counted the fluorescing inclusion body-positive cells. Again, two areas per triplicate of wells of 24-well plate are averaged (magnification 20×). Aggregate-positive cells are presented as percentage of the total viable GFP-fluorescing cells.

SOD1(A4V) [3] = biological target: T1, SOD1(A4V); experiment: Differential scanning fluorimetry of SOD1(A4V) with SYPRO Orange; assay type: biochemical; conditions: 5:1 peptide to protein ratio
Description: FIGS. 4A-4F: (A) Chemical structure of the selected cyclic pentapeptide SOD1C5-4. (B) Circular dichroism spectra of SOD1(A4V) incubated with/without the selected cyclic pentapeptides SOD1C5-4, AβC5-34 or AβC5-116 at room temperature for 90 d (1:1 and 5:1 indicate cyclic peptide:SOD1(A4V) molar ratios). Representative spectra from n=2 independent experiments are presented. (C) Dynamic light scattering analysis of SOD1(A4V) incubated with/without the selected cyclic pentapeptides at room temperature for 60 d. Representative data from n=2 independent experiments are presented. (D) Thioflavin T (ThT) fluorescence of SOD1(A4V) incubated with/without the selected cyclic pentapeptides at room temperature for 90 d. Representative data from n=2 independent experiments are presented. (E) Filter retardation assay of SOD1(A4V) incubated with/without the selected cyclic pentapeptides at 37° C. for 25 d. Representative images from n=2 independent experiments performed in replica duplicates are presented. (F) Differential scanning fluorimetry analysis of isolated SOD1(A4V) in the presence or absence of the selected cyclic pentapeptide SOD1C5-4 (5:1 peptide to protein ratio) using the conformation-sensitive dye SYPRO Orange. Data corresponding to n=2 independent experiments each one performed in three replicates±s.e.m. are presented.

T1 sequence (P00441 whole entry A5V): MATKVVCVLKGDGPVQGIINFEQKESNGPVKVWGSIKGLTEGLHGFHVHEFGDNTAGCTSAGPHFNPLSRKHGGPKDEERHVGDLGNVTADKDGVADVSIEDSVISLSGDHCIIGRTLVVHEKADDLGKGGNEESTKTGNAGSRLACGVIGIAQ

Substance: cyclo-TWSVW (cyclic) [SOD1C5-4]
- formation of large, amyloid-like SOD1(A4V) aggregates by ThT staining (SOD1(A4V) [1]): dramatically decreased
- fluorescence of HEK293 cells expressing SOD1(A4V)-GFP [2]: higher fluorescence
- inclusions comprising aggregated SOD1(A4V)-GFP [2]: fewer inclusions comprising aggregated SOD1(A4V)-GFP
- viability of HEK293 cells expressing SOD1(A4V)-GFP [2]: higher viability
- propensity of SOD1(A4V) to expose hydrophobic surfaces (SYPRO Orange, heat-induced denaturation) (SOD1(A4V) [3]): decrease the propensity of SOD1(A4V) to expose hydrophobic surfaces
